Results: patent US8642559B2, “C-terminal domain truncation of mGluR1α by calpain and uses thereof” (priority 2006, dated 2014)
Entries after “also recorded” stand apart in the source; their conditions may differ.

Legend:
[1] = system: cultured neurons; assay: Blockade of NMDA neurotoxicity in cultured neurons (live/dead cell assay); type: cell-based; details: peptide 8 μM, pretreated 90 min; NMDA 50 μM 1 h; analyzed 12 h later
Description: In this figure, cultured neurons were pretreated with the tat-peptide for 90 min. They were then treated with NMDA (50 μM) for 1 h. They were analyzed 12 h later by live/dead cell assay (0.5 μM EthD-1 and 2 μM Calcein AM).

[2] = system: mGluR1α; assay: In vivo truncation of mGluR1α in hippocampus after kainic acid injection; details: peptide i.p. 90 min before kainic acid 30 mg/kg s.c., mice
Description: (§1) The tat-peptide was injected i.p. 90 min before kainic acid injection. Note that the peptide had no effect on seizure intensity (bottom left).
The objective of this set of experiments was to verify that the feedback mechanism of the present invention could take place in vivo and participate in excitotoxicity. We used the kainic acid model of excitotoxicity, as this model has been widely used to study the mechanisms underlying in vivo excitotoxicity (Wang et al. Mol Neurobiol 31:3-16, 2005). Mice were injected with kainic acid and sacrificed at different times after injection. Levels of mGluR1α were determined in hippocampus with both Western blots and immunohistochemistry (FIG. 10).

[3] = system: hippocampal neurons; assay: Kainic acid-induced neuronal damage (silver staining) and seizures in mice; type: in vivo
Description: as §1
They were sacrificed after 7 days and brains processed for silver staining, a marker of cell damage. Note the heavy labeling of the pyramidal cell layer in the KA alone group.
The effect of the tat-mGluR1 peptide on kainic acid-induced neuronal damage was also evaluated.

[4] = system: mGluR1; assay: Brain membranes treated with purified calpain and calcium: mGluR1 truncation; type: biochemical; details: purified calpain, calcium
Description: (§2) As previously mentioned, calpain inhibitors were previously shown to exert neuroprotective effects in some models of neurodegeneration, and it could be argued that the effects of the tat-mGluR1 peptide we observed were due to some calpain inhibitor effects of the peptide. However, the inventors of the present invention have discovered that this is not likely the case. In particular, when brain membranes were treated with purified calpain in the presence of calcium, truncation of both mGluR1 and spectrin was observed. […] The inventors believe that the peptide acts as a calpain substrate competing with mGluR1 for calpain. The selective protection of tat-mGluR1 has the advantage that it may act as a selective blocking agent without disrupting calpain's other enzymatic activities. Thus, a blocking agent of the present invention will have the advantage of having reduced side-effect profile than calpain inhibitors.

[5] = system: spectrin; assay: Brain membranes treated with purified calpain and calcium: spectrin degradation; type: biochemical; details: purified calpain, calcium
Description: as §2

[6] = system: cultured hippocampal slices; assay: OGD-induced cell death in cultured hippocampal slices (LDH release, PI uptake); type: cell-based; details: 10 μM for 3 h before and during OGD (30 min); 3 h and 24 h after OGD
Description: Cultured slices were subjected to OGD for 30 min, and returned to normal glucose and oxygen conditions for 24 h. Neuronal damage was assessed by the propidium iodide (PI) uptake method, which labels damaged cells (a, b), and by LDH release in culture medium (c).
We used a well-known in vitro stroke model, combined oxygen/glucose deprivation in cultured hippocampal slices, to test the idea that the mechanism we have proposed, i.e., calpain-mediated truncation of mGluR1, accounts for neuronal death in stroke. Furthermore, we tested the neuroprotective effects of the tat-mGluR1 peptide in this stroke model. In this model, cultured hippocampal slices are treated for various periods of time (30-60 min) by changing the cultured medium to a medium without glucose and replacing the normal air/5% CO2 with nitrogen. After this period of time, slices are returned to normal glucose-containing medium and exposed to air/5% CO2 and are cultured for again various periods of time. Cell death is evaluated by measuring the amount of LDH release in the medium at various times, as well as by the extent of Propidium Iodide (PI) uptake in the cells (LDH release in the medium is an index of membrane damage, as LDH is a cytoplasmic enzyme; likewise, PI is generally not taken up by cells, except if the cell membrane is severely compromised).

[7] = system: mGluR1α; assay: OGD-induced mGluR1 truncation in cultured hippocampal slices (immunoblot); type: cell-based; details: longer OGD (50-min), 6 or 24 hours recovery
Description: Cultured hippocampal slices were subjected to 50-min OGD and returned to normal culture condition for another 6 or 24 hours.

[8] = system: mGluR1α; assay: Glutamate/NMDA-induced C-terminal truncation of mGluR1α in cultured cortical neurons (immunoblot); type: cell-based; details: 100 μM glutamate
Text: (§3) Total cell lysates were separated by SDS-PAGE and probed with an antibody against the carboxyl terminus (residue 1142-1160) of mGluR1α. […] Total cell lysates were probed with an anti-myc antibody. […] Total cell lysates were probed with antibodies against mGluR5, G1uR2/3 and VGluT1 respectively.
Total cell lysate was collected immediately after treatment and subjected to SDS-PAGE and immunoblotting with an antibody against the carboxyl terminus (residues 1142-1160) of mGluR1α (FIG. 2A). […] Neurons were transfected with a calcium phosphate precipitation method modified for high transfection rate (Jian et al., Gene Ther 11:1301-1311, 2004).
Cortical neurons were treated with NMDA at the indicated concentrations for 1 h or treated with NMDA (10 μM) for the indicated times. Total cell lysates were separated by SDS-PAGE and probed with antibodies against mGluR1α1142-1160, Results were normalized over control values and are means±s.e.m. of 4 experiments.
To determine whether activation of mGluR1α itself was required for the truncation, two distinct mGluR1α antagonists were applied.
To further characterize NMDA-induced mGluR1α truncation, the concentration- and time-dependencies of the effects of NMDA were studied. Cortical neurons were first incubated with different concentrations of NMDA for a fixed period of time (1 hour) (FIG. 3F). […] In a following experiment, cortical neurons were incubated with 10 μM NMDA for different durations ranging from 1 to 60 min (FIG. 3G).
Cortical neurons were treated with NMDA (10 μM, 1 h). Total cell lysates were separated by SDS-PAGE and probed with antibodies against spectrin and mGluR1α1142-1160, respectively. Only the degradation bands of spectrin (spectrin DB, at ˜145 KD) are shown. […] In FIG. 4C, purified myc-mGluR1α was digested with μ-calpain at the indicated concentrations (U/ml) for 30 min. The digested material was processed for SDS-PAGE and subjected to silver staining or immunoblots with anti-myc or anti-mGluR1α1142-1160 antibodies. […] The 1st lane was the myc-mGluR1α immunoprecipitated from 293 cells; the 2nd and 3rd lanes were immunoprecipitated myc-mGluR1α digested with indicated concentration of calpain. […] FIG. 4F is the alignment of mGluR1 (902-941) and mGluR5 (889-927) surrounding the calpain cleavage site.
In this set of experiments, we determined which protease(s) mediated NMDA-induced truncation of mGluR1α. […] Cortical neurons were pretreated with a calpain inhibitor, the cell-permeable calpain-inhibitor III, or the caspase inhibitor cpm-VAD-CHO for 2 hours and then incubated in the absence or presence of 100 µM NMDA for 1 hour. […] To further confirm calpain activation by NMDA under our experimental conditions, we determined the levels of the calpain-specific spectrin degradation fragments.

[9] = system: mGluR5; assay: mGluR5 levels in cortical neurons after glutamate (immunoblot); type: cell-based; details: 100 μM glutamate, 60 min
Text: as §3

[10] = system: vesicular glutamate transporter (vGluT1); assay: vGluT1 levels in cortical neurons after glutamate (immunoblot); type: cell-based; details: 100 μM glutamate, 60 min
Text: as §3
To test for the specificity of glutamate-mediated truncation of mGluR1α, immunoblots were also probed with an antibody against mGluR5, another member of group I mGluRs, which shares a high similarity with mGluR1α.

[11] = system: cortical neurons; assay: Glutamate toxicity in transfected GFP-expressing cortical neurons (EthD-1 staining); type: cell-based; details: 25 μM glutamate 1 hour, 12 hours later
Text: In FIGS. 8a and b, cortical neurons were co-transfected with green fluorescent protein (GFP) and vector DNA, myc-mGluR1α or myc-mGluR1α936Δ, respectively. […] Twelve hours later, neurons were stained with EthD-1 to label dead cells. Arrowheads in FIG. 8a indicate EthD-1 positive GFP-expressing neurons. * p<0.05. FIGS. 8c and d are representative photos and bar graphs showing differential roles of endogenous mGluR1 in neuronal toxicity before and after NMDA-induced truncation. Cortical neurons were treated as indicated and were stained with EthD-1 (for dead cells) and calcein AM (for live cells) 24 hours later. * p<0.001.
The downstream signaling pathways of mGluR1α, including release of intracellular calcium and activation of P13K-Akt, are both important for excitotoxicity. Therefore, we postulated that NMDA-induced truncation would alter the role of mGluR1α in neuronal toxicity. To test this possibility, we first co-transfected neurons with GFP and a control vector, wild-type mGluR1α or truncated mGluR1α respectively. […] Twelve hours after treatment, neurons were stained with 0.5 μM EthD-1 for 10 minutes to label dead cells. The numbers of GFP-expressing neurons and EthD-1 positive GFP-expressing neurons on each 18×18 mm coverslip were counted to calculate the percentage of dead cells. […] In neurons co-transfected with control vector, 35% (n=9, on average, there were 405 GFP-expressing neurons counted on each coverslip) of GFP-expressing neurons were positive for EthD-1 staining and therefore had died. In neurons co-transfected with wild-type mGluR1α, only 15% of neurons (n=8, in average, there were 428 GFP-expressing neurons counted on each coverslip) were EthD-1 positive, an effect that was statistically different from that in neurons co-transfected with control vector (p<0.01, Student's t-test). […] Therefore it was difficult to determine the exact location of cell bodies and the live/dead ratios in those neurons.

Row | Compound | prevention of NMDA-mediated neurotoxicity [1] | reduction of kainic acid-induced mGluR1 truncation [2] | effect on kainic acid-induced neuronal damage (silver staining of pyramidal cell layer) ([3]; peptide 100 mg/kg i.p. 90 min before kainic acid 30 mg/kg s.c., 7 days) | effect on severity or duration of kainic acid-induced seizures ([3]; peptide i.p. 90 min before kainic acid) | prevention of calpain-mediated mGluR1 truncation [4] | prevention of calpain-mediated spectrin degradation [5] | neuroprotection assessed with LDH release [6] | neuroprotection assessed with PI uptake [6] | block of OGD-induced mGluR1 truncation [7] | block of OGD-induced mGluR1 truncation ([7]; listed as TAT-mGluR1α fusion peptide) | time at which mGluR1α truncation was apparent after glutamate treatment [8] [min] | levels of native mGluR1α ([8]; 60 min (1 hour)) | levels of mGluR5 [9] | changes to vGluT1 [10] | EthD-1 positive GFP-expressing neurons (dead cells) ([11]; co-transfected with control vector) [%] | EthD-1 positive GFP-expressing neurons (dead cells) ([11]; co-transfected with mGluR1α936Δ) [%] | EthD-1 positive GFP-expressing neurons (dead cells) ([11]; co-transfected with wild-type mGluR1α) [%]
1 | YGRKKRRQRRRVIKPLTKSYQGSGK [tat-mGluR1 peptide] | almost completely prevented | significantly reduced | dramatically reduced; also recorded: significantly reduced | did not influence | prevented | not | complete neuroprotection | complete neuroprotection | almost completely blocked | partially restored |  |  |  |  |  |  | 
2 | N[C@@H](CCC(=O)O)C(=O)O [glutamate] |  |  |  |  |  |  |  |  |  |  | 1 | almost completely disappeared; also recorded: significant reduction | not significantly altered | no significant changes | 35 | 59 | 15
